Test results published in patent publication US6924301B1, “Composition for treating or preventing arrhythmia” (Shionogi & Co., Ltd., priority 1999, dated 2005).

Molecular target: T1, cPLA2 (Homo sapiens, UniProt P47712)
T1 sequence (P47712 1-749): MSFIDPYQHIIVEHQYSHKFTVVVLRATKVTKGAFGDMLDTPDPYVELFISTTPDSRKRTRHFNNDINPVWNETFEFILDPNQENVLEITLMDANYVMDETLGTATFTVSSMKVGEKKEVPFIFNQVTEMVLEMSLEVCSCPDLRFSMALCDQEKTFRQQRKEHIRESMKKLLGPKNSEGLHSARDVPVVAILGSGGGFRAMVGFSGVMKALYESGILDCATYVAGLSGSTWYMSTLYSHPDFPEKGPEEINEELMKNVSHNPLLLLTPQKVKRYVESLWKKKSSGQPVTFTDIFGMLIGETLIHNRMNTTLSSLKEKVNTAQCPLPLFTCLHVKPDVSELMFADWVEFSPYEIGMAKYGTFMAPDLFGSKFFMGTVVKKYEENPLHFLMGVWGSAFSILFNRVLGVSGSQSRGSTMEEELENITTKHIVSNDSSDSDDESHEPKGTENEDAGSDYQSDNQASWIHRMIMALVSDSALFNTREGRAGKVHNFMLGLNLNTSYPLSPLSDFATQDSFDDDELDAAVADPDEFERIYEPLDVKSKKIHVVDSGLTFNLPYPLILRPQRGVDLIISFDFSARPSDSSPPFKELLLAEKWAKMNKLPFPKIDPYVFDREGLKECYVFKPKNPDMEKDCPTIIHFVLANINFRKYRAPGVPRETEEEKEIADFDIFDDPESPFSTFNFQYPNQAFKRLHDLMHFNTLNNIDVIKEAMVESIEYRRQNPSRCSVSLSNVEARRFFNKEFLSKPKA
Test: cPLA2 inhibitory activity
Type: biochemical
Details: for IC50: 1-palmitoyl-2-[14C]-arachidonoyl-sn-glycero-3-phosphocholine liposomes, 15 min at 37° C.; for IC60: 0.25 h, Table 10, same assay
Description: The compounds of the present invention were tested for the cPLA2 inhibitory activity according to the method disclosed in […]. Roberts, […], and J. E. Putnam, J. Biol. Chem., 1991, 266, 5268-5272 as outlined below. […] The reaction mixture includes 50 mM HEPES buffer (pH 7.5), 1 mM calcium chloride, 150 mM sodium chloride, 0.1 mg/ml bovine serum albumin, and 1.7 mM dithiothreitol. To the reaction mixture was added the compound of the present invention and the substrate solution. The reaction was allowed to start by adding an enzyme and continued for 15 min at 37° C. The fatty acids released by the reaction were extracted by the method described in V. P. Dole, and H. Meinertz, J. Biol. Chem., 1960, 235, 2595-2599 and its radiation activity was measured on a liquid scintillation counter. Control was obtained by conducting the experiment in the same manner except that a compound of the present invention was not added.

IC50 [nM]	IC60 [nM]	Compound
20	–	O=C1NC(=O)C(=Cc2ccc(C(=O)NCC3CC(SCc4c(-c5ccccc5)cccc4-c4ccccc4)CN3C(=O)c3ccccc3C(=O)c3ccc(F)cc3F)cc2)S1 (centres unmarked) [Compound B-2]
9	–	COc1ccc(C(SC2CC(CNC(=O)c3ccc(C=C4SC(=O)NC4=O)cc3)N(C(=O)c3ccccc3C(=O)c3ccc(F)cc3F)C2)(c2ccccc2)c2ccc(OC)cc2)cc1 (centres unmarked) [Compound B-3]
2.6	–	O=C1NC(=O)C(=Cc2ccc(C(=O)NCC3CC(SC(c4ccccc4)(c4cccc(F)c4)c4cccc(F)c4)CN3C(=O)c3ccccc3C(=O)c3ccc(F)cc3F)cc2)S1 (centres unmarked) [Compound B-4]
2.7	–	O=C1NC(=O)C(=Cc2ccc(C(=O)NCC3CC(SC(c4ccccc4)(c4ccccc4)c4cc(F)cc(F)c4)CN3C(=O)c3ccccc3C(=O)c3ccc(F)cc3F)cc2)S1 (centres unmarked) [Compound B-5]
1.3	–	Cc1cc(C)cc(C(SC2CC(CNC(=O)c3ccc(C=C4SC(=O)NC4=O)cc3)N(C(=O)c3ccccc3C(=O)c3ccc(F)cc3F)C2)(c2ccccc2)c2ccccc2)c1 (centres unmarked) [Compound B-6]
–	1.4	Cc1cccc(C(SC2CC(CNC(=O)c3ccc(C=C4SC(=O)NC4=O)cc3)N(C(=O)c3ccccc3C(=O)c3ccc(F)cc3F)C2)(c2ccccc2)c2cccc(C)c2)c1 (centres unmarked) [Compound B-7]
–	1.2	O=C1NC(=O)C(Cc2ccc(C(=O)NCC3CC(SC(c4ccccc4)(c4ccccc4)c4ccccc4)CN3C(=O)c3ccccc3C(=O)c3ccc(F)cc3F)cc2)S1 (centres unmarked) [Compound B-8]
–	0.6	O=C(C=Cc1ccc(C=C2SC(=O)NC2=O)cc1)NCC1CC(SC(c2ccccc2)(c2ccccc2)c2ccccc2)CN1C(=O)c1ccccc1C(=O)c1ccc(F)cc1F (centres unmarked) [Compound B-9]
–	5.6	O=C(C=Cc1ccc(C=C2SC(=O)NC2=O)cc1)NCC1CC(SCc2c(-c3ccccc3)cccc2-c2ccccc2)CN1C(=O)c1ccccc1C(=O)c1ccc(F)cc1F (centres unmarked) [Compound B-10]
–	1.2	COc1ccc(C(SC2CC(CNC(=O)C=Cc3ccc(C=C4SC(=O)NC4=O)cc3)N(C(=O)c3ccccc3C(=O)c3ccc(F)cc3F)C2)(c2ccccc2)c2ccccc2)cc1 (centres unmarked) [Compound B-11]
–	2	COc1ccc(C(SC2CC(CNC(=O)C=Cc3ccc(C=C4SC(=O)NC4=O)cc3)N(C(=O)c3ccccc3C(=O)c3ccc(F)cc3F)C2)(c2ccccc2)c2ccc(OC)cc2)cc1 (centres unmarked) [Compound B-12]
–	2	Cc1ccc(C(SC2CC(CNC(=O)C=Cc3ccc(C=C4SC(=O)NC4=O)cc3)N(C(=O)c3ccccc3C(=O)c3ccc(F)cc3F)C2)(c2ccccc2)c2ccccc2)cc1 (centres unmarked) [Compound B-13]
–	1.2	O=C(C=Cc1ccc(C=C2SC(=O)NC2=O)cc1)NCC1CC(SC(c2ccc(F)cc2)(c2ccc(F)cc2)c2ccc(F)cc2)CN1C(=O)c1ccccc1C(=O)c1ccc(F)cc1F (centres unmarked) [Compound B-14]
–	1.2	Cc1ccccc1C(SC1CC(CNC(=O)C=Cc2ccc(C=C3SC(=O)NC3=O)cc2)N(C(=O)c2ccccc2C(=O)c2ccc(F)cc2F)C1)(c1ccccc1)c1ccccc1 (centres unmarked) [Compound B-15]
–	1	Cc1cccc(C(SC2CC(CNC(=O)C=Cc3ccc(C=C4SC(=O)NC4=O)cc3)N(C(=O)c3ccccc3C(=O)c3ccc(F)cc3F)C2)(c2ccccc2)c2ccccc2)c1 (centres unmarked) [Compound B-16]
–	0.63	O=C(C=Cc1ccc(C=C2SC(=O)NC2=O)cc1)NCC1CC(SC(c2ccc(Cl)cc2)(c2ccc(Cl)cc2)c2ccc(Cl)cc2)CN1C(=O)c1ccccc1C(=O)c1ccc(F)cc1F (centres unmarked) [Compound B-17]
–	0.26	CC(C)c1cccc(C(SC2CC(CNC(=O)C=Cc3ccc(C=C4SC(=O)NC4=O)cc3)N(C(=O)c3ccccc3C(=O)c3ccc(F)cc3F)C2)(c2ccccc2)c2ccccc2)c1 (centres unmarked) [Compound B-18]
–	2.9	O=C(C=Cc1ccc(C=C2SC(=O)NC2=O)cc1)NCC1CC(SC(c2ccccc2)(c2ccccc2)c2cccs2)CN1C(=O)c1ccccc1C(=O)c1ccc(F)cc1F (centres unmarked) [Compound B-19]
–	1.4	O=C(C=Cc1ccc(CC2SC(=O)NC2=O)cc1)NCC1CC(SC(c2ccccc2)(c2ccccc2)c2ccccc2)CN1C(=O)c1ccccc1C(=O)c1ccc(F)cc1F (centres unmarked) [Compound B-20]
–	0.27	Cc1cccc(C(SC2CC(CNC(=O)C=Cc3ccc(C=C4SC(=O)NC4=O)cc3)N(C(=O)c3ccccc3C(=O)c3ccc(F)cc3F)C2)(c2ccccc2)c2cccc(C)c2)c1 (centres unmarked) [Compound B-21]
–	0.37	Cc1cc(C)cc(C(SC2CC(CNC(=O)C=Cc3ccc(C=C4SC(=O)NC4=O)cc3)N(C(=O)c3ccccc3C(=O)c3ccc(F)cc3F)C2)(c2ccccc2)c2ccccc2)c1 (centres unmarked) [Compound B-22]
–	0.52	O=C(C=Cc1ccc(C=C2SC(=O)NC2=O)cc1)NCC1CC(SC(c2ccccc2)(c2ccccc2)c2ccccc2F)CN1C(=O)c1ccccc1C(=O)c1ccc(F)cc1F (centres unmarked) [Compound B-23]

Further lines, the molecule ahead of its results:

Compound	IC50 [nM]	IC60 [nM]
CC(C)CN(C(c1ccccc1)c1ccccc1)[C@@H]1C[C@@H](CNC(=O)c2ccc(/C=C3\SC(=O)NC3=O)cc2)N(C(=O)c2ccccc2C(=O)c2ccccc2)C1 [Compound A-1]	33	–
CC(C)CN(C1CC(CNC(=O)c2ccc(C=C3SC(=O)NC3=O)cc2)N(C(=O)c2ccccc2C(=O)c2ccccc2F)C1)C(c1ccccc1)c1ccccc1 (centres unmarked) [Compound A-2]	14	–
CC(C)CN(C1CC(CNC(=O)c2ccc(C=C3SC(=O)NC3=O)cc2)N(C(=O)c2ccccc2C(=O)c2cccc(F)c2)C1)C(c1ccccc1)c1ccccc1 (centres unmarked) [Compound A-3]	94	–
CC(C)CN(C1CC(CNC(=O)c2ccc(C=C3SC(=O)NC3=O)cc2)N(C(=O)c2ccccc2C(=O)c2c(F)cccc2F)C1)C(c1ccccc1)c1ccccc1 (centres unmarked) [Compound A-5]	7.4	–
CC(C)CN(C1CC(CNC(=O)c2ccc(C=C3SC(=O)NC3=O)cc2)N(C(=O)c2cccc(F)c2C(=O)c2ccc(F)cc2F)C1)C(c1ccccc1)c1ccccc1 (centres unmarked) [Compound A-6]	4.5	–
CC(C)CN(C1CC(CNC(=O)c2ccc(C=C3SC(=O)NC3=O)cc2)N(C(=O)c2c(F)cccc2C(=O)c2ccc(F)cc2F)C1)C(c1ccccc1)c1ccccc1 (centres unmarked) [Compound A-7]	5.1	–
CC(C)CN(C1CC(CNC(=O)c2ccc(C=C3SC(=O)NC3=O)cc2)N(C(=O)c2ccc(F)cc2C(=O)c2ccc(F)cc2F)C1)C(c1ccccc1)c1ccccc1 (centres unmarked) [Compound A-8]	5	–
CC(C)CN(C1CC(CNC(=O)c2ccc(C=C3SC(=O)NC3=O)cc2)N(C(=O)c2cc(F)ccc2C(=O)c2ccc(F)cc2F)C1)C(c1ccccc1)c1ccccc1 (centres unmarked) [Compound A-9]	2	–
COc1ccc(C(=O)c2ccc(F)cc2F)c(C(=O)N2CC(N(CC(C)C)C(c3ccccc3)c3ccccc3)CC2CNC(=O)c2ccc(C=C3SC(=O)NC3=O)cc2)c1 (centres unmarked) [Compound A-10]	29	–
CC(C)CN(C1CC(CNC(=O)c2ccc(C=C3SC(=O)NC3=O)cc2)N(C(=O)c2cc(Cl)ccc2C(=O)c2ccc(F)cc2F)C1)C(c1ccccc1)c1ccccc1 (centres unmarked) [Compound A-11]	5.2	–
CC(C)CN(C1CC(CNC(=O)c2ccc(C=C3SC(=O)NC3=O)s2)N(C(=O)c2ccccc2C(=O)c2ccc(F)cc2F)C1)C(c1ccccc1)c1ccccc1 (centres unmarked) [Compound A-12]	2.1	–
CC(C)CN(Cc1ccccc1-c1ccccc1)[C@@H]1C[C@@H](CNC(=O)/C=C/c2ccc(/C=C3\SC(=O)NC3=O)cc2)N(C(=O)c2ccccc2C(=O)c2ccc(F)cc2F)C1 [Compound A-14]	1.8	–
O=C(/C=C/c1ccc(/C=C2\SC(=O)NC2=O)cc1)NC[C@@H]1C[C@@H](N(Cc2ccccc2)C(c2ccccc2)c2ccccc2)CN1C(=O)c1ccccc1C(=O)c1ccc(F)cc1F [Compound A-17]	3.7	–
